Experimental data from ChEMBL document CHEMBL5260817, “Polyamine-based analogs and conjugates as antikinetoplastid agents” (Eur J Med Chem, 2017).
“And” between values parts separate entries of the source, which are not always exact repeats. Equal entries are not always repeated. Each block holds one compound with its values, some of them ahead of it.

Experiments:
Trypanosoma brucei [1] = assay: Antiprotozoal activity against Trypanosoma brucei; format: functional, organism-based
[2] = Inhibition of Trypanosoma brucei MetRS
Trypanothione reductase [3] = target: T1, Trypanothione reductase (Trypanosoma cruzi, UniProt P28593); assay: Inhibition of Trypanosoma cruzi TryR assessed as inhibition constant
T1 sequence (P28593 whole entry): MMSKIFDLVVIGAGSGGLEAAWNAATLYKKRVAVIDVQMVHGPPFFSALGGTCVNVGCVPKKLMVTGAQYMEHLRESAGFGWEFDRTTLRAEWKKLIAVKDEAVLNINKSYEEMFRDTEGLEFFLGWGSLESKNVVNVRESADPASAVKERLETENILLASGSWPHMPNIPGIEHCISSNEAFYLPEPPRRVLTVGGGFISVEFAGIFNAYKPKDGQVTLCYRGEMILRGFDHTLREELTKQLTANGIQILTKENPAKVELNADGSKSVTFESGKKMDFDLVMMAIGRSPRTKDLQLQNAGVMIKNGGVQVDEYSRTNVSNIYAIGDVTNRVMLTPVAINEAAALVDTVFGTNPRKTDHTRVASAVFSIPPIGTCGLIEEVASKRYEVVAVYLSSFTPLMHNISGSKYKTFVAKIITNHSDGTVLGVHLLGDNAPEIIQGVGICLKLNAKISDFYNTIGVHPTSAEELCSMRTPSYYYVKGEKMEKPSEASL

Trypanosoma = assay: Inhibition of Trypanosomal TryS at 10 uM relative to control
Trypanothione reductase [4] = target: T1, Trypanothione reductase; assay: Inhibition of Trypanosoma cruzi TryR assessed as inhibition constant by TR assay
Trypanosoma cruzi [5] = assay: Antiprotozoal activity against Trypanosoma cruzi epimastigotes; format: functional, organism-based; settings: Trypanosoma cruzi
Trypanosoma brucei [6] = assay: Trypanocidal activity against Trypanosoma brucei Lab 110 strain; format: functional, organism-based
Trypanosoma brucei [7] = assay: Trypanocidal activity against Trypanosoma brucei K 243-As-10-3 strain; format: functional, organism-based
Trypanosoma brucei [8] = assay: Trypanocidal activity against Trypanosoma brucei K 269 strain; format: functional, organism-based
Trypanosoma brucei [9] = assay: Trypanocidal activity against Trypanosoma brucei K 243 strain; format: functional, organism-based
Trypanothione reductase [10] = target: T2, Trypanothione reductase (Trypanosoma brucei brucei, UniProt P39051); assay: Inhibition of Trypanosoma brucei TryR assessed as inhibition constant
T2 sequence (P39051 whole entry): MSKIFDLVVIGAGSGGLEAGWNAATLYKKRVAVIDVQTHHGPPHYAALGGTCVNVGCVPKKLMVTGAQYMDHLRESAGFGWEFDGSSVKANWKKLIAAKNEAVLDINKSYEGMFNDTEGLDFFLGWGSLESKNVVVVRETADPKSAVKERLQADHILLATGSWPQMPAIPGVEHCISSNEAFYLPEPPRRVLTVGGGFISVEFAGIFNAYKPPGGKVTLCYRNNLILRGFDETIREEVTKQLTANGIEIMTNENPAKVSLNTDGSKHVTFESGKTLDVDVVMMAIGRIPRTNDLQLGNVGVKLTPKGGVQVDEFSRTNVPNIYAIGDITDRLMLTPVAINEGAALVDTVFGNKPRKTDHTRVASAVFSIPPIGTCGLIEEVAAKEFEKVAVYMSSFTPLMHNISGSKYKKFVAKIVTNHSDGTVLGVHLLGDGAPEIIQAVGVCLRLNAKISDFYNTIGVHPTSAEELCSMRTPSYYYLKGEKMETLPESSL

Leishmania donovani [11] = assay: Antiprotozoal activity against Leishmania donovani MHOM/IN/1978/UR6 strain promastigotes assessed as parasite growth inhibition; format: functional, organism-based
Leishmania amazonensis [12] = assay: Antiprotozoal activity against Leishmania amazonensis promastigotes measured after 48 hrs by MTT assay; format: functional, organism-based
Leishmania donovani [13] = assay: Antiprotozoal activity against Leishmania donovani promastigotes; format: functional, organism-based
[14] = system: Trypanosoma brucei rhodesiense; assay: Antiprotozoal activity against Trypanosoma brucei rhodesiense; format: functional, organism-based
Trypanosoma cruzi [15] = assay: Antiprotozoal activity against Trypanosoma cruzi; format: functional, organism-based
Leishmania donovani [16] = assay: Antiprotozoal activity against Leishmania donovani; format: functional, organism-based
Trypanothione reductase [17] = target: T1, Trypanothione reductase; assay: Inhibition of Trypanosoma cruzi TryR
[18] = Inhibition of TryR (unknown origin) assessed as inhibition constant; parameters: species or system Bacteria
Leishmania chagasi = assay: Antiprotozoal activity against Leishmania chagasi measured after 3 days by MTT assay; format: functional, organism-based; settings: 72 h
Leishmania amazonensis [19] = assay: Antiprotozoal activity against Leishmania amazonensis measured after 3 days by MTT assay; format: functional, organism-based; settings: 72 h
Leishmania donovani [20] = assay: Antiprotozoal activity against Leishmania donovani MHOM/SD/00/1S-2D strain promastigotes assessed as parasitic death at 10 uM relative to control; format: functional
Leishmania donovani [21] = assay: Antiprotozoal activity against Leishmania donovani MHOM/SD/00/1S-2D strain promastigotes assessed as parasitic death; format: functional, organism-based
Bacteria = assay: Inhibition of TryR (unknown origin) at 10 uM relative to control
Trypanosoma brucei [22] = assay: Trypanocidal activity against Trypanosoma brucei trypomastigotes; format: functional, organism-based
Leishmania donovani [23] = assay: Antiprotozoal activity against Leishmania donovani amastigotes assessed as growth inhibition measured after 7 days relative to control; format: functional; settings: time 7 day
Trypanothione reductase [24] = target: T1, Trypanothione reductase; assay: Inhibition of Trypanosoma cruzi TryR expressed in escherichia coli in presence of NADPH
Trypanosoma cruzi [25] = assay: Antiprotozoal activity against Trypanosoma cruzi MG strain epimastigotes; format: functional, organism-based
Trypanosoma cruzi [26] = assay: Antiprotozoal activity against Trypanosoma cruzi JEM strain epimastigotes; format: functional, organism-based
Leishmania braziliensis = assay: Antiprotozoal activity against Leishmania braziliensis MHOM/PE/84/LC26 amastigotes infected in mouse J774.2 cells measured after 72 hrs; format: functional, organism-based; settings: J774.2, 72 h
Trypanothione reductase [27] = target: T2, Trypanothione reductase; assay: Inhibition of Trypanosoma brucei TryR
[28] = system: Trypanosoma brucei brucei; assay: Antiprotozoal activity against Trypanosoma brucei brucei; format: functional, organism-based
[29] = system: Trypanosoma brucei brucei; assay: Antiprotozoal activity against Trypanosoma brucei brucei Lab 110 EATRO strain; format: functional, organism-based

Ki (Trypanothione reductase [3]): 2 µM
Compound: CCCNCCCNC(=O)CNC(=O)[C@H](CCCC[C@H](NC(=O)OCC1c2ccccc2-c2ccccc21)C(=O)NCC(=O)NCCCNCCC)NC(=O)OCC1c2ccccc2-c2ccccc21

IC50 [14]: 0.16 µM
Compound: C(CCCNCCCNCC1CCCCCC1)CCCNCCCNCC1CCCCCC1

Ki (Trypanothione reductase [10]): 0.6 µM
Compound: c1ccc(CCCNCCCN(CCCCN(CCCNCCCc2ccccc2)CCCc2ccccc2)CCCc2ccccc2)cc1
IC50 (Trypanosoma brucei [6]): 0.1 µM | IC50 (Trypanosoma brucei [7]): 0.1 µM | IC50 (Trypanosoma brucei [8]): 0.1 µM | IC50 (Trypanosoma brucei [9]): 0.1 µM

IC50 (Trypanosoma cruzi [15]): > 40 µM | IC50 (Leishmania donovani [16]): > 40 µM | IC50 [14]: > 40 µM
Compound: NCCCCNCCCNC(=O)C(=O)c1c[nH]c2cc(Br)ccc12

IC50 (Trypanothione reductase [17]): 0.8 µM
Compound: CN1CCN(CCCNC(=O)CCCCCC2=C(CCCCCC(=O)NCCCN3CCN(C)CC3)C(=O)c3c(N)cccc3C2=O)CC1

IC50 (Trypanosoma brucei [1]): 0.19 µM
Compound: c1ccc2cc(CNCCCCNCCCNCc3ccc4ccccc4c3)ccc2c1

Ki (Trypanothione reductase [10]): 19 µM
Compound: c1ccc(CNCCCNCCCCNCCCNCc2ccccc2)cc1

inhibition (Bacteria): 98% | Ki [18]: 0.076 µM and 0.08 µM
Compound: O=C(Cc1c[nH]c2cc(Br)ccc12)NCCCNCCCCNCCCNC(=O)Cc1c[nH]c2cc(Br)ccc12

IC50 (Trypanosoma cruzi [25]): > 19 µM | IC50 (Trypanosoma cruzi [26]): > 19 µM
Compound: CCCCCCCCCCCCCCC(N)CN (configuration not stated)

IC50 (Trypanosoma cruzi [15]): > 40 µM | IC50 (Leishmania donovani [16]): > 40 µM | IC50 [14]: > 40 µM
Compound: NCCCCNCCCNC(=O)C(=O)c1c[nH]c2ccccc12

IC50 [28]: 0.04 µM
Compound: CC[C@H](C)CNCCCNCCCCCCCNCCCNC[C@@H](C)CC

Ki (Trypanothione reductase [3]): 37 µM
Compound: NCCCNCCCCNCCCNCCCc1ccccc1

Further lines, the compound ahead of its results:

Compound: OCCn1c(CNCCCNc2nc3ccccc3[nH]2)cc2c(Cl)cc(Cl)cc21
IC50 (Trypanosoma brucei [1]): 0.001 µM | IC50 [2]: < 0.025 µM

Compound: CNCCNC(=O)CN1C(=O)Cc2c([nH]c3ccc(Br)cc23)-c2ccccc21
inhibition (Trypanosoma): 90%

Compound: Clc1ccc(Sc2ccccc2)c(NCCN2CCCC2)c1
Ki (Trypanothione reductase [4]): 86 µM | IC50 (Trypanosoma cruzi [5]): 10 µM

Compound: NCCCN(CCCCN(CCCN)CCCc1ccccc1)CCCc1ccccc1
IC50 (Trypanosoma brucei [6]): 0.5 µM | IC50 (Trypanosoma brucei [7]): 0.5 µM | IC50 (Trypanosoma brucei [8]): 0.5 µM | IC50 (Trypanosoma brucei [9]): 0.5 µM | Ki (Trypanothione reductase [10]): 3 µM

Compound: c1ccc(CNCCCCNCCCCCCCCCCCCNCCCNCc2ccccc2)cc1
IC50 (Leishmania donovani [11]): 4 µM

Compound: CC(C)=CCC/C(C)=C/CC/C(C)=C/CNCCN
IC50 (Leishmania amazonensis [12]): 16.8 µM

Compound: COc1cc(CN(CCCN)Cc2ccc(OCc3ccc(Br)cc3)c(OC)c2)ccc1OCc1ccc(Br)cc1
IC50 (Leishmania donovani [13]): < 1 µM

Compound: O=C(NCCCCNCCCNC(=O)c1cnc2cc(C(F)(F)F)ccc2c1O)c1cnc2cc(C(F)(F)F)ccc2c1O
Ki [18]: 0.85 µM

Compound: CN(C)CCNc1cc(Cl)ccc1Sc1ccccc1
Ki (Trypanothione reductase [4]): 90 µM

Compound: CCCCCCCCCCCCNCCN
IC50 (Leishmania chagasi): 0.2 µM | IC50 (Leishmania amazonensis [19]): 0.94 µM

Compound: COc1ccc2nc3cc(Cl)ccc3c(NCCCCNCCCNc3c4ccc(Cl)cc4nc4ccc(OC)cc34)c2c1
inhibition at 10 µM (Leishmania donovani [20]): 90% | IC50 (Leishmania donovani [21]): 1 µM

Compound: CCCCCCCCCCCC(=O)NCCCCN
IC50 (Leishmania chagasi): 10 µM | IC50 (Leishmania amazonensis [19]): 10 µM

Compound: O=C1CC[C@]23/C=C/C(=O)NCCCCNCCCNC(=O)/C=C/c4ccc(c2c4)O[C@@H]3C1
Ki [18]: 114 µM | IC50 (Trypanosoma brucei [22]): 65 µM

Compound: CN1CCN(CCCNCCC#N)CC1
inhibition (INH) (Leishmania donovani [23]): 80%

Compound: O=C1NC(=O)C(c2c[nH]c3ccccc23)=C1NCCCNCCCNC1=C(c2c[nH]c3ccccc23)C(=O)NC1=O
IC50 (Trypanothione reductase [24]): > 57 µM

Compound: c1ccc(CCCN(CCCCN(CCCc2ccccc2)CCCN(CCCc2ccccc2)CCCc2ccccc2)CCCN(CCCc2ccccc2)CCCc2ccccc2)cc1
IC50 (Trypanosoma brucei [6]): 20 µM | IC50 (Trypanosoma brucei [7]): 20 µM | IC50 (Trypanosoma brucei [8]): 20 µM | IC50 (Trypanosoma brucei [9]): 20 µM

Compound: CC(=O)c1ccc(Sc2ccccc2NCCCN(CCCN)CCCCN(CCCN)CCCNc2cc(Cl)ccc2Sc2ccc(C(C)=O)cc2)cc1
Ki [18]: 0.4 µM

Compound: CN1CCN(CCC(=O)Nc2cc(Cl)ccc2Sc2cccc(NC(=O)CCCC(=O)Nc3cccc(Sc4ccc(Cl)cc4NC(=O)CCN4CCN(C)CC4)c3)c2)CC1
IC50 (Leishmania braziliensis): 0.93 µM | IC50 (Trypanothione reductase [17]): 0.93 µM

Compound: CN1CCN(CCCN2c3ccccc3Sc3ccc(Cl)cc32)CC1 [PROCHLORPERAZINE]
IC50 (Trypanothione reductase [27]): 7.5 µM

Compound: N=C(N)c1ccc(N2CCCN(c3ccc(C(=N)N)cc3)CC2)cc1
IC50 [29]: 0.002 µM

Compound: CCCNCCCCCCCCCNC(=O)[C@H](O)[C@H](O)[C@H](O)CO
IC50 (Leishmania chagasi): 2.5 µM

Compound: NCCCN1CCN(CCCNC2=C(c3c[nH]c4ccccc34)C(=O)N(CCCN3CCN(CCCN)CC3)C2=O)CC1
IC50 (Trypanothione reductase [17]): 5.4 µM

Compound: COC(=O)/N=C(\NCCCN1CCN(C)CC1)NC(=O)OC
inhibition (INH) (Leishmania donovani [23]): 85%

Compound: Clc1cc(Cl)cc(CNCCCNc2nc3ncccc3[nH]2)c1
IC50 (Trypanosoma brucei [1]): 0.004 µM | IC50 [2]: 0.001 µM

Compound: COc1cc(CN(CCCN)Cc2ccc(OCc3ccccc3)c(OC)c2)ccc1OCc1ccccc1
IC50 (Leishmania donovani [13]): < 1 µM
